Key:
human TNFR-p55 [1] = test: Solid phase radioligand competition binding assay, E. coli lysates, TNFR-p55; details: for Dilution of E. coli Lysate for 50% Inhibition of 125I-TNFα Binding (ID50) TNFR-p55: 10-fold serial dilutions 10^-2 to 10^-7, < = inhibition but below 50% at 1:100, << = no measurable inhibition at 1:100; for ID50 TNFR-p55 / ID50 TNFR-p75: ratio = 1 no receptor selectivity, > 1 TNFR-p55 selectivity, < 1 TNFR-p75 selectivity
human TNFR-p75 [2] = test: Solid phase radioligand competition binding assay, E. coli lysates, TNFR-p75; details: 10-fold serial dilutions 10^-2 to 10^-7, < = inhibition but below 50% at 1:100, << = no measurable inhibition at 1:100
human TNFR-p55 [3] = test: Competitive binding of purified muteins to recombinant human TNFR-p55; details: for Decrease in Binding Affinity with Respect to Wildtype TNFR-p55: IC50 of mutein divided by IC50 of wildtype TNFα; for Mutein Concentration for 50% Inhibition of 125I-TNFα Binding (IC50) TNFR-p55: purified protein, 10 ng/ml 125I-TNFα, > = competition but below 50% at 100 μg/ml, >> = no measurable competition at 100 μg/ml
Experimental: (§1) The cells were disrupted in a French press at a pressure of 20'000 psi or by sonication in a Branson Sonifier (Model 450, 2×2minat maximal output, on ice). […] Proteins were eluted with a linear NaCl gradient (0 to 400 mM in 20 mM Tris pH 9.0) at a flow rate of 1 ml/min. 5 ml fractions were collected and analyzed for the presence of TNFα muteins by SDS-PAGE. Positive fractions were pooled, dialyzed against 20 mM 2-morpholino-ethanesulfonic acid (MES) pH 6.0 and applied to a MonoS column (HR 5/5, LKB-Pharmacia) equilibrated in 20 mM MES pH 6.0. Proteins were eluted with a linear NaCl gradient (0 to 400 mM in 20 mM MES pH 6.0) at a flow rate of 0.5 ml/min. […] After dialysis against PBS the protein concentration was determined by the BCA Protein Assay (Pierce Chemical Company) using wild-type human TNFα as a standard or by absorbance measurements at 280 nm.
(§2) TNFα was labelled by the Iodogen method (Pierce Chemical Company) to a specific activity of about 10-30 μCi/μg. The volume was 100 μl/well and each concentration was assayed in duplicate or triplicate. After three hours at room temperature the wells were thoroughly washed with PBS and counted in a γ-counter.

human TNFR-p75 [4] = test: Competitive binding of purified muteins to recombinant human TNFR-p75; details: for Decrease in Binding Affinity with Respect to Wildtype TNFR-p75: IC50 of mutein divided by IC50 of wildtype TNFα; for Mutein Concentration for 50% Inhibition of 125I-TNFα Binding (IC50) TNFR-p75: purified protein, 10 ng/ml 125I-TNFα
Experimental: as §1, §2

Substance: D143N: human TNFα mutein D143N
- Dilution of E. coli Lysate for 50% Inhibition of 125I-TNFα Binding (ID50) TNFR-p55 (human TNFR-p55 [1]): < 100 fold
- ID50 TNFR-p55 / ID50 TNFR-p75 (human TNFR-p55 [1]): < 0.3
- Dilution of E. coli Lysate for 50% Inhibition of 125I-TNFα Binding (ID50) TNFR-p75 (human TNFR-p75 [2]): 330 fold
- Decrease in Binding Affinity with Respect to Wildtype TNFR-p55 (human TNFR-p55 [3]): > 2,500 fold
- Mutein Concentration for 50% Inhibition of 125I-TNFα Binding (IC50) TNFR-p55 (human TNFR-p55 [3]): > 100,000 ng/ml
- Decrease in Binding Affinity with Respect to Wildtype TNFR-p75 (human TNFR-p75 [4]): 6.7 fold
- Mutein Concentration for 50% Inhibition of 125I-TNFα Binding (IC50) TNFR-p75 (human TNFR-p75 [4]): 300 ng/mL

Substance: D143Y: human TNFα mutein D143Y
- Dilution of E. coli Lysate for 50% Inhibition of 125I-TNFα Binding (ID50) TNFR-p55 (human TNFR-p55 [1]): < 100 fold
- ID50 TNFR-p55 / ID50 TNFR-p75 (human TNFR-p55 [1]): < 0.08
- Dilution of E. coli Lysate for 50% Inhibition of 125I-TNFα Binding (ID50) TNFR-p75 (human TNFR-p75 [2]): 1,330 fold
- Decrease in Binding Affinity with Respect to Wildtype TNFR-p55 (human TNFR-p55 [3]): > 6,660 fold
- Mutein Concentration for 50% Inhibition of 125I-TNFα Binding (IC50) TNFR-p55 (human TNFR-p55 [3]): > 100,000 ng/ml
- Decrease in Binding Affinity with Respect to Wildtype TNFR-p75 (human TNFR-p75 [4]): 17.5 fold
- Mutein Concentration for 50% Inhibition of 125I-TNFα Binding (IC50) TNFR-p75 (human TNFR-p75 [4]): 350 ng/mL
